Legend:
CD2F1 mice = assay: Y-maze test, short-working memory (alternation behavior) after 48 hr burden of insufficient sleep; type: in vivo, mouse; settings: His:VB6=360:1; His 900, VB6 2.5 mg/kg/day one week plus oral dose; FIG. 7B
Procedure: Using CD2F1 mice (9-10-week-old) in the group constitution shown in Table 4, the test was performed as shown in the experiment protocol (FIG. 4A). The His group and His+VB6 group were allowed to drink each solution freely for one week so that the ingestion amount of His would be 900 mg/kg/day, and the ingestion amount of the VB6 group and the His+VB6 group would be […]. As the feed, a feed having the composition of Table 5 was used. After ingestion of His or VB6, or both for one week, insufficient sleep was burdened for 48 hr by filling water in the breeding cage at the depth of 0.5 cm. The burden was released at 6 hr from the start of the light phase, and the mice were placed back in the home cage and allowed to rest for 6 hr. […] A Y-maze test was performed at 3 hr from the start of the dark phase, and short-working memory was measured. […] A Y-maze test was performed at 3 hr from the start of the dark phase, and short-working memory was measured. […] A Y-maze test was performed at 3 hr from the start of the dark phase, and short-working memory was measured. […] A Y-maze test was performed at 3 hr from the start of the dark phase, and short-working memory was measured. […]

[1] = tested on: males feeling decrease in the quality of sleep and fatigue; assay: Crossover test of histidine ingestion for 14 days (POMS, VAS questionnaires, CogHealth); type: in vivo, human
Description: Twenty males of 45 years old to less than 65 years old, who received total evaluation of not less than 17 points in the “self-diagnosis fatigue questionnaire” (Fatigue Science Laboratory Inc.), felt decrease in the quality of sleep (generally PSQI≥6), and obtained fatigue factor T scores of not less than 60 points in POMS, performed in advance, were selected, and randomly divided into 2 groups (10 per group). A crossover test, including ingesting histidine and control food (equal volume of cellulose) each for 14 days, was performed in each group. As shown in the experiment protocol of FIG. 9A, the test subjects ingested capsules containing 1.65 g of L-histidine as a daily ingestion amount (5 capsules (hard capsule #2 WHITE OP B/C) containing 0.33 g of L-histidine alone), or control sample capsules (5 capsules containing equal volume of cellulose) for 14 days. After the completion of 14 day ingestion, a 14 day resting period was taken. After the resting period, they ingested the capsules not ingested before the resting period. On the initial day and the day after completion of the capsule ingestion period, the test subjects answered POMS and the VAS questionnaires (fatigue, depression, vague sense, drowsiness, clear thinking, motivation, attentiveness, concentration) relating to fatigue, and cognitive function measurement task CogHealth (under higher difficulty conditions by simultaneously including mental arithmetic task as well) to measure intellectual performance which is one of the fatigue indices. Furthermore, they answered VAS questionnaires after completion of CogHealth.

[2] = tested on: males feeling decrease in the quality of sleep and fatigue; assay: Single histidine ingestion (VAS questionnaires, CogHealth); type: in vivo, human
Description: Twenty males of 45 years old to less than 65 years old, who received total evaluation of not less than 17 points in the “self-diagnosis fatigue questionnaire” (Fatigue Science Laboratory Inc.), felt decrease in the quality of sleep (generally PSQI≥6), and obtained fatigue factor T scores of not less than 60 points in POMS performed in advance, were selected, and randomly divided into 2 groups (10 per group). The effect of single ingestion of histidine and control food (equal volume of cellulose) was compared in each group. As shown in the experiment protocol of FIG. 10A, the test subjects took the same meals for 3 days before the experiment, fasted for 10 to for 14 hr, and ingested capsules containing 1.65 g of L-histidine as a single ingestion amount (5 capsules (hard capsule #2 WHITE OP B/C) containing 0.33 g of L-histidine alone), or control sample capsules (5 capsules containing equal volume of cellulose). Before and 1 hr after ingestion of capsules, the test subjects answered the VAS questionnaires (fatigue, depression, vague sense, drowsiness, clear thinking, motivation, attentiveness, concentration) relating to fatigue, and cognitive function measurement task CogHealth (under higher difficulty conditions by simultaneously including mental arithmetic task as well) to measure intellectual performance which is one of the fatigue indices. Furthermore, they answered VAS questionnaires after completion of CogHealth.

[3] = Safety of His ingestion: general properties, hematology, blood biochemistry; type: in vivo, human; settings: ingestion of His (1.65 g, single or 14 days) in test subjects
[4] = 14 days, after completion of CogHealth, p<0.05, FIG. 9E
[5] = 14 days, before CogHealth, vs control food, p<0.05, FIG. 9C
[6] = single ingestion, after completion of CogHealth
[7] = single ingestion, before CogHealth, p<0.05, FIG. 10B

## N[C@@H](Cc1c[nH]cn1)C(=O)O [His, histidine]
CD2F1 mice
  alternation behavior as compared to the VB6 group: significant increase
[1]; 1.65 g L-histidine daily for 14 days vs control food, paired t-test p<0.05, FIG. 9B
  fatigue factor scores of POMS: significantly decreased
[1]; 14 days, CogHealth, vs control food, FIG. 9D
  reaction time of cognitive function measurement task: shortened
[1]; 14 days, CogHealth, vs control food, p<0.05, FIG. 9D
  reaction time of delayed recall task: significantly decreased
[1]; [4]
  VAS sense of attentiveness: significantly increased
  VAS sense of depression: significantly decreased
  VAS sense of motivation: significantly increased
[1]; [5]
  VAS sense of attentiveness: significantly increased
  VAS sense of clear thinking: significantly increased
  VAS sense of motivation: significantly increased
[2]; single 1.65 g L-histidine, 1 hr after ingestion, vs control food
  work time in 5 kinds of brain function measurement indices: shortened
[2]; [6]
  VAS sense of concentration: tended to increase
  VAS sense of depression: tended to decrease
[2]; single ingestion, after completion of CogHealth, p<0.05
  VAS vague sense: significantly decreased
[2]; single ingestion, before CogHealth, FIG. 10B
  VAS sense of concentration: tended to increase
[2]; [7]
  VAS sense of attentiveness: significantly increased
  VAS sense of clear thinking: significantly increased
[3]
  variation in general properties, hematology, and blood biochemistry: did not show problematic variation

Source: US10369163B2, “Anti-fatigue composition” (AJINOMOTO CO., INC., priority 2013, dated 2019)
